Values after ≈ are worked out from the molar mass of the structure shown.
Key:
[1] = Compound solubility in water; format: physicochemical
[2] = target: T1, glucocerebrosidase (Gcase) (Homo sapiens, UniProt P04062); experiment: Glucocerebrosidase (Gcase) activation assay, 4-methylumbelliferyl-beta-D-glucopyranoside substrate, with saposin C; format: biochemical; details: 10 nM GCase, 100 nM saposin C, pH 4.7; for activation at 0.1 µM: read-out: Percent Gease Activation 0.1 μM Test Compound; for activation at 1 µM: read-out: Percent Gease Activation 1 μM Test Compound
T1 construct: micellar solution containing 10 nM GCase and 100 nM saposin C
T1 sequence (P04062 40-536): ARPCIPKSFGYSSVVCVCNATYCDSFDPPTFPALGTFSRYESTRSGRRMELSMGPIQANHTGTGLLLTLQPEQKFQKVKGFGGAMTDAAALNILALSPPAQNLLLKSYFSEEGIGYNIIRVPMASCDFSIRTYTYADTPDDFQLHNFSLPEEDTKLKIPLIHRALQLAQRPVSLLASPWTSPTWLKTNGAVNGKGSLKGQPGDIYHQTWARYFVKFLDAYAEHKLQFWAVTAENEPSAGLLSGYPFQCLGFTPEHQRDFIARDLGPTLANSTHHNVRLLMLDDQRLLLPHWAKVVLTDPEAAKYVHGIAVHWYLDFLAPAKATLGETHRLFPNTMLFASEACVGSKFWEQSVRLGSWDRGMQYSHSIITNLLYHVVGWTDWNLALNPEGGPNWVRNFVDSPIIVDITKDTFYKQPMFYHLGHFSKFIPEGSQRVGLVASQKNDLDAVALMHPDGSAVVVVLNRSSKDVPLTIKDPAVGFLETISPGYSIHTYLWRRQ
Procedure: The ability of exemplary compounds to activate glucocerebrosidase (Gcase) was measured.
A 484 μL aliquot of a 1.0 mg/mL solution of phosphatidylserine (PS) (Sigma P7769) in chloroform was evaporated under a stream of nitrogen for 1 hour. The lipid film was dissolved over 4 minutes of vigorous vortexing in 40 mL of 176 mM K2HPO4/50 mM citric acid (pH 4.7) containing 7.5 μL of triton X-100, resulting in a mixed micellar preparation with a composition of 0.32 mM triton and 0.37 mol % PS. 4-Methylumbelliferyl-beta-D-glucopyranoside (ACROS-337025000) was dissolved in the micellar solution to a final concentration of 2 mM for use as the reaction substrate.
Test compounds were diluted to the desired concentrations with dimethylsulfoxide (DMSO) from 10 mM stocks, and 0.41 μL of the DMSO compound mixture was added to 100 μL of micellar solution containing 10 nM GCase and 100 nM saposin C (Enzo ALX-201-262-C050). Pre-incubation was allowed to occur for 30 minutes at room temperature, after which the reaction was initiated by combining 25 μL of substrate solution with 25 μL of compound/GCase/saposin mixture. The reaction proceeded for 15 minutes at room temperature and was stopped by adding 150 μL of 1M glycine, pH 12.5. The endpoint of the reaction was monitored by measuring fluorescence intensity (excitation: 365 nm; emission: 440 nm) on a SpectraMax i3 instrument (Molecular Devices). Test compounds were screened at 1.0 and 0.1 μM final concentration, and subsequent 8-point dose response curves were obtained using 3-fold dilutions from a maximum final concentration of 5 μM.
For experiments in which the test compound was used at a concentration of 1.0 μM, the symbol “+” indicates less than 30% Gcase activation; the symbol “++” indicates Gcase activation in the range of 30% up to 60%; and the symbol “+++” indicates Gcase activation greater than 60%. For experiments in which the test compound was used at a concentration of 0.1 μM, the symbol “*” indicates less than 10% Gcase activation; the symbol “**” indicates Gcase activation in the range of 10% up to 20%; and the symbol “***” indicates greater than 20% Gcase activation.

Structure (SMILES)	solubility [1] [µg/mL]	activation at 0.1 µM ([2]; 0.1 μM test compound) [%]	activation at 1 µM ([2]; 1 μM test compound) [%]	Compound Solubility in Water [1] [µg/mL]	Percent Gease Activation 0.1 μM Test Compound ([2]; 0.1 μM test compound)	Percent Gease Activation 1 μM Test Compound ([2]; 1 μM test compound)
C#Cc1ccc(NC(=O)c2ncn3c(C)cc(C)nc23)cc1 [III-1]	< 1.5	10 to 20	> 60	–	–	–
Cc1cc(C)n2cnc(C(=O)Nc3ccc(-c4cocn4)cc3)c2n1 [III-3]	4.8 (≈ 14.4 µM)	< 10	30 to 60	–	–	–
Cc1cc(C)n2cnc(C(=O)Nc3ccc(-c4ncco4)cc3)c2n1 [III-4]	7.9 (≈ 23.7 µM)	< 10	30 to 60	–	–	–
C#Cc1ccc(NC(=O)c2ncn3c(C)cc(C)nc23)cn1 [III-5]	26.6 (≈ 91.3 µM)	< 10	< 30	–	–	–
Cc1cc(C)n2cnc(C(=O)Nc3ncc(C)[nH]3)c2n1 [III-6]	> 54	< 10	< 30	–	–	–
Cc1cc(C)n2cnc(C(=O)Nc3ccc4[nH]ncc4c3)c2n1 [III-8]	0.4 (≈ 1.31 µM)	< 10	< 30	–	–	–
Cc1cc(C)n2cnc(C(=O)Nc3ccc4c(C)cc(=O)oc4c3)c2n1 [III-9]	0.3 (≈ 0.861 µM)	< 10	< 30	–	–	–
Cc1cc(C)n2cnc(C(=O)Nc3ccc4cn[nH]c4c3)c2n1 [III-11]	0.5 (≈ 1.63 µM)	< 10	< 30	–	–	–
Cc1cc(C)n2cnc(C(=O)Nc3ccc4c(c3)OCO4)c2n1 [III-12]	3.4 (≈ 11 µM)	< 10	< 30	–	–	–
Cc1cc(C)n2cnc(C(=O)Nc3ccc4nc(O)cc(C)c4c3)c2n1 [III-13]	0.3 (≈ 0.864 µM)	< 10	< 30	–	–	–
COc1cc(NC(=O)c2ncn3c(C)cc(C)nc23)ccc1-c1cnco1 [III-14]	0.5 (≈ 1.38 µM)	< 10	< 30	–	–	–
Cc1cc(C)n2cnc(C(=O)Nc3ccc4nc(C)oc4c3)c2n1 [III-15]	3 (≈ 9.34 µM)	< 10	< 30	–	–	–
Cc1cc(C)n2cnc(C(=O)Nc3ccc4c(c3)CCNC4)c2n1 [III-16]	29.9 (≈ 93 µM)	< 10	< 30	–	–	–
Cc1cc(C)n2cnc(C(=O)Nc3ccc4c(=O)cc(C)oc4c3)c2n1 [III-17]	0.4 (≈ 1.15 µM)	< 10	< 30	–	–	–
Cc1cc(C)n2cnc(C(=O)Nc3ccc(C)c(-c4ncco4)c3)c2n1 [III-26]	0.5 (≈ 1.44 µM)	10 to 20	> 60	–	–	–
Cc1cc(C)n2cnc(C(=O)Nc3ccc(Cl)c(-c4cnco4)c3)c2n1 [III-27]	0.2 (≈ 0.544 µM)	< 10	30 to 60	–	–	–
Cc1cc(C)n2cnc(C(=O)Nc3ccc(-c4ccco4)cc3)c2n1 [III-30]	0.3 (≈ 0.903 µM)	> 20	> 60	–	–	–
Cc1cc(C)n2cnc(C(=O)Nc3ccc(-c4ccco4)nc3)c2n1 [III-31]	–	–	–	<0.01	* (less than 10% Gcase activation)	+ (less than 30% Gcase activation)
COCc1cc(C2CC2)nc2c(C(=O)NC3(C)CCOc4c(F)ccc(F)c43)ncn12 (centres unmarked) [III-33]	–	10 to 20	> 60	–	–	–
Cc1cc(C(F)(F)F)nc2c(C(=O)NC3(C)CCCc4ccccc43)ncn12 (centres unmarked) [III-34]	24.9 (≈ 64.1 µM)	< 10	< 30	–	–	–
Cc1cc(C(C)C)n2cnc(C(=O)N[C@H]3CCCc4ccccc43)c2n1 [III-35]	21.6 (≈ 62 µM)	< 10	< 30	–	–	–
[2H]C1(NC(=O)c2ncn3c(C)cc(C)nc23)CCCCc2ccccc21 (centres unmarked) [III-38]	14.9 (≈ 44.4 µM)	10 to 20	> 60	–	–	–
C#Cc1ccc(NC(=O)c2ncn3c(C)cc(C)nc23)c(F)c1 [III-48]	–	10 to 20	> 60	–	–	–

Next, values leading:

solubility [1] [µg/mL]	activation at 0.1 µM ([2]; 0.1 μM test compound) [%]	activation at 1 µM ([2]; 1 μM test compound) [%]	Compound Solubility in Water [1] [µg/mL]	Percent Gease Activation 0.1 μM Test Compound ([2]; 0.1 μM test compound)	Percent Gease Activation 1 μM Test Compound ([2]; 1 μM test compound)	Structure (SMILES)
5.8 (≈ 17.3 µM)	< 10	30 to 60	–	–	–	COCC#Cc1ccc(NC(=O)c2ncn3c(C)cc(C)nc23)cc1 [III-2]
0.7 (≈ 2.19 µM)	< 10	< 30	–	–	–	Cc1cc(C)n2cnc(C(=O)Nc3ccc4[nH]c(C)cc4c3)c2n1 [III-7]
6.4 (≈ 19.9 µM)	< 10	< 30	–	–	–	Cc1cc(C)n2cnc(C(=O)Nc3ccc4c(c3)CC(=O)N4)c2n1 [III-10]
2.3 (≈ 7.48 µM)	< 10	< 30	–	–	–	Cc1cc(C)n2cnc(C(=O)Nc3ccc4oncc4c3)c2n1 [III-18]
0.3 (≈ 0.78 µM)	< 10	30 to 60	–	–	–	Cc1cc(C)n2cnc(C(=O)Nc3ccc4oc(-c5ccncc5)nc4c3)c2n1 [III-19]
0.3 (≈ 0.806 µM)	< 10	< 30	–	–	–	Cc1cc(C)n2cnc(C(=O)Nc3ccc4[nH]c(-c5ccco5)nc4c3)c2n1 [III-20]
1.1 (≈ 3.26 µM)	< 10	< 30	–	–	–	Cc1cc(C)n2cnc(C(=O)Nc3ccc4nc(C)sc4c3)c2n1 [III-21]
4.7 (≈ 15.3 µM)	10 to 20	> 60	–	–	–	Cc1cc(C)n2cnc(C(=O)Nc3ccc4c(c3)CCC4)c2n1 [III-22]
0.3 (≈ 0.736 µM)	10 to 20	> 60	–	–	–	Cc1cc(C)n2cnc(C(=O)Nc3ccc(Cl)c(COc4cccnc4)c3)c2n1 [III-23]
6 (≈ 18 µM)	< 10	< 30	–	–	–	Cc1cc(C)n2cnc(C(=O)Nc3ccc4nccc(O)c4c3)c2n1 [III-24]
–	< 10	< 30	3.8	–	–	Cc1cc(C)n2cnc(C(=O)Nc3ccc4nccc(O)c4c3)c2n1 [III-25]
0.3 (≈ 0.851 µM)	> 20	> 60	–	–	–	CCCCCOc1ccc(NC(=O)c2ncn3c(C)cc(C)nc23)cc1 [III-28]
0.4 (≈ 1.14 µM)	10 to 20	> 60	–	–	–	Cc1cc(C)n2cnc(C(=O)Nc3ccc(-c4cccs4)nc3)c2n1 [III-29]
17.2 (≈ 43.8 µM)	< 10	< 30	–	–	–	O=C(NC1CCCc2ccccc21)c1ncn2c(C(F)F)cc(C(F)F)nc12 (centres unmarked) [III-32]
11.9 (≈ 35.6 µM)	< 10	> 60	–	–	–	Cc1cc(C)n2cnc(C(=O)NC3(C)CCCc4ccccc43)c2n1 (centres unmarked) [III-36]
28 (≈ 73.2 µM)	< 10	30 to 60	–	–	–	Cc1cc(C(C)C)n2cnc(C(=O)NC3(C)CCOc4c(F)cccc43)c2n1 (centres unmarked) [III-37]
–	< 10	< 30	–	–	–	C#Cc1ccc(C(C)(C)NC(=O)c2ncn3c(C)cc(C(F)(F)F)nc23)cc1 [III-39]
40.5 (≈ 105 µM)	< 10	< 30	–	–	–	C#Cc1cccc(C(C)(C)NC(=O)c2ncn3c(C)cc(C(F)(F)F)nc23)c1 [III-40]
7.6 (≈ 22.9 µM)	10 to 20	> 60	–	–	–	C#Cc1cccc(C(C)(C)NC(=O)c2ncn3c(C)cc(C)nc23)c1 [III-41]
18.7 (≈ 56.3 µM)	< 10	30 to 60	–	–	–	C#Cc1ccc(C(C)(C)NC(=O)c2ncn3c(C)cc(C)nc23)cc1 [III-42]
14.7 (≈ 43.2 µM)	10 to 20	> 60	–	–	–	CCC(C)(NC(=O)c1ncn2c(C)cc(C)nc12)c1ccc(F)cc1 (centres unmarked) [III-43]
–	10 to 20	> 60	–	–	–	C#Cc1ccc(NC(=O)c2ncn3c(C)cc(C)nc23)cc1F [III-49]
